Test results taken from US20200237764A1, “DRUG COMBINATIONS FOR TARGETING MULTIPLE MUTATIONS IN CANCER” (CureMatch, Inc., priority 2017, published 2020).

Tested on: CAPAN2 cells
Test: WST-1 colorimetric cell viability assay in CAPAN2 cells
Type: cell-based, human
Details: for IC20 / IC50: Homo sapiens, Capan-2, CAPAN2 cell survival; for cell death: at 300 nM, 48 hrs
Experimental: The human pancreatic cancer cell line CAPAN2, was purchased from the American Type Culture Collection (ATCC; Manassas, Va.). Cells were grown in McCoy's Modified 5A media supplemented with 10% FCS, 1× penicillin/streptomycin and 1× amphotericin. For testing, cells were released from the dishes by treatment with PBS (without calcium) for ˜30 min followed by 0.25% trypsin-EDTA for 5 minutes at 37 C. Cells were collected in a 15 ml centrifuge tube and spun down in a clinical centrifuge for 5 min and then re-suspended in 1 ml of fresh media and the cells were counted using a hemocytometer. Cells (1×10^3-5×10^3) were then seeded into 96-well plates in 100 μL of media and the cells were incubated for 48 hours. After 48 hours, the media was replaced and the cells were re-incubated for another 24 hours prior to treatment with the drugs.
Stock drug solutions were prepared in complete media from master stock solutions prepared in DMSO according to the manufacturer's instructions. Using these stock solutions, 1:1, 2:1, 5:1, and 10:1 volume-volume (v/v) mixtures of regorafenib and trametinib were prepared. These mixtures were then two-fold serially diluted to generate a range of 20 concentrations in each case. The cells were incubated in drug mixtures for 48-72 hours before cell viability assay/assessment.
Cell viability was determined using a WST-1 colorimetric cell proliferation assay (Roche), according to manufacturer's instructions. The stable tetrazolium salt WST-1 is cleaved to a soluble formazan by a complex cellular mechanism that occurs primarily at the cell surface. This reduction is largely dependent on the glycolytic production of NAD(P)H in viable cells. Therefore, the amount of formazan dye formed, and estimated using a spectrophotometer (BIO-TEK 340, BIOTEK) directly correlates to the number of metabolically active cells in the culture. All testing points were done at least in triplicate.

[1] = monotherapy, two-fold serial dilution 2 nM to 1 mM, 48-72 hours

| SMILES | effect on CAPAN2 cell survival (in words) (CAPAN2 cells, 48-72 hours) | maximum decrease in cell viability (CAPAN2 cells, concentration of 1 mM, 48-72 hours) | IC20 [1] | cell death (CAPAN2 cells) | IC50 (2 nM to 1 mM) | IC50 (100 μM to 0.2 nM, 48-72 hours) | IC20 (48-72 hours) |
| --- | --- | --- | --- | --- | --- | --- | --- |
| Nc1ccn([C@@H]2O[C@H](CO)[C@@H](O)C2(F)F)c(=O)n1 [gemcitabine] | little, if any, effect on cell survival | −30% | 111000 nM |  |  |  |  |
| CNC(=O)c1cc(Oc2ccc(NC(=O)Nc3ccc(Cl)c(C(F)(F)F)c3)c(F)c2)ccn1 [regorafenib] | significant reduction in cell survival |  | 2000 nM | −2% | 7.1 µM |  |  |
| CC(=O)Nc1cccc(-n2c(=O)n(C3CC3)c(=O)c3c(Nc4ccc(I)cc4F)n(C)c(=O)c(C)c32)c1 [trametinib] |  |  |  | −10% |  | 0.028 µM | 4 nM |
